Values quoted from earlier work, collected in patent US20180228811A1, “GDNF INDUCTION FOR THE TREATMENT OF RETINAL DISORDERS” (THE SCHEPENS EYE RESEARCH INSTITUTE, INC., priority 2014, published 2018).

Test system: photoreceptors
Settings: rd10 mouse, systemic treatment (Mitton et al. 2014); cited from earlier work

## CCCC(CCC)C(=O)O [VPA, Valproic acid]
  photoreceptor rescue, result in words: partial photoreceptor rescue
